Where two headings read alike, the source gives them in different places.
Legend:
[1] = molecular target: SARS-CoV-2 nsp14 (Severe acute respiratory syndrome coronavirus 2, UniProt P0DTD1); assay: biochemical; details: for Ligand Efficiency (LE) nsp14: estimated from IC50 values
[2] = molecular target: SARS-CoV-2 nsp16/nsp10 (Severe acute respiratory syndrome coronavirus 2, UniProt P0DTD1); assay: biochemical; details: for Ligand Efficiency (LE) nsp16: estimated from IC50 values
[3] = molecular target: T1, human Glycine N-Methyltransferase (GNMT) (Homo sapiens, UniProt Q14749); assay: HTRF methyltransferase selectivity assay, human GNMT; format: biochemical; details: for Ligand Efficiency (LE) Human (hMtase): estimated from IC50 values
T1 construct: purchased MyBioSource MBS636160
T1 sequence (Q14749 1-295): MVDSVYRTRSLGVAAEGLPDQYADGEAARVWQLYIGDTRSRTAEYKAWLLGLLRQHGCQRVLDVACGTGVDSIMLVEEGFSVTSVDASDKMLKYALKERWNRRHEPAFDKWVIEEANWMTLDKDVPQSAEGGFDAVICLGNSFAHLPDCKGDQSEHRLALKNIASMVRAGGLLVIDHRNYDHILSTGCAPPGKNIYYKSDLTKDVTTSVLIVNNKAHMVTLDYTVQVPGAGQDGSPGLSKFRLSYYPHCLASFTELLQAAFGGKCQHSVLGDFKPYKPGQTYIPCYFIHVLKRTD

[4] = HTRF, SAM 10 µM, GpppG 4 µM, read-out: IC50 nsp14
[5] = HTRF, nsp16/nsp10, SAM 10 µM, m7GpppA-RNA, read-out: IC50 nsp16
[6] = HTRF, SAM 10 µM, glycine 5 mM, read-out: IC50 Human (hMtase, human glycine N-methyltransferase)

| SMILES | Percent inhibition at 100 μM, nsp14 [1] | Percent inhibition at 100 μM, nsp16 [2] | Percent inhibition at 100 μM, Human [3] | other results |
| --- | --- | --- | --- | --- |
| CC(C(=O)NCCCn1ccnn1)c1n[nH]c(=O)c2ccccc12 (stereo not drawn) [ZINC000215108606] | 9 ±3% | 40 ±6% | 22 ±6% | – |
| O=C(CCCn1cnc2ccccc2c1=O)Nc1ccc2ncnc(O)c2c1 [ZINC000096114839] | 28 ±7% | 17 ±5% | 83 ±6% | – |
| Nc1ncnc2c1ncn2[C@@H]1O[C@H](COC(=O)c2ccc(S(=O)(=O)F)cc2)[C@@H](O)[C@H]1O [ZINC000048222133] | 58 ±2% | 42 ±6% | 87 ±1% | IC50 [1, 4]: 53 ± 3 µM; Ligand Efficiency (LE) nsp14 [1]: 0.19 kcal/mol; IC50 [2, 5]: 105 ± 6 µM; Ligand Efficiency (LE) nsp16 [2]: 0.17 kcal/mol; IC50 [3, 6]: 25.3 µM; Ligand Efficiency (LE) Human (hMtase) [3]: 0.20 kcal/mol |
| CC(=O)N1N=C(c2ccc3c(c2)OCO3)OC1c1cc(-c2ccccc2)nc2ccccc12 (stereo not drawn) [ZINC000021941344] | 12 ±4% | 36 ±10% | 45 ±7% | – |
| CN(CCNc1nc2c(c(=O)[nH]1)Cc1ccccc1OC2)S(C)(=O)=O [Compound 028-736-920] | 8 ±5% | -4 ±3% | 42 ±2% | – |
| COc1ccccc1CN1CC(C(=O)NCc2n[nH]c(=O)[nH]2)CCC1=O (stereo not drawn) [ZINC000092001674] | 0 ±7% | 22 ±12% | 44 ±8% | – |
| CN(CC1CCN(c2ccccc2)C1)S(=O)(=O)c1ccc2[nH]c(=O)oc2c1 (stereo not drawn) [ZINC000952973746] | 27 ±9% | 38 ±6% | 41 ±1% | – |
| Cc1nc(O)cc(CNc2nc3c(c(=O)[nH]2)Cc2ccccc2OC3)n1 [ZINC000095519272] | 49 ±17% | 57 ±13% | 70 ±3% | IC50 [1, 4]: ~200 µM; Ligand Efficiency (LE) nsp14 [1]: 0.19 kcal/mol; IC50 [2, 5]: 95 ± 4 µM; Ligand Efficiency (LE) nsp16 [2]: 0.21 kcal/mol; IC50 [3, 6]: 53 ± 3 µM; Ligand Efficiency (LE) Human (hMtase) [3]: 0.22 kcal/mol |
| Nc1ncnc2c1ncn2[C@@H]1O[C@H](CSCC[C@H](N)C(=O)O)[C@@H](O)[C@H]1O [S-(5′-Adenosyl)-L-homocysteine (SAH), S-(5′-Adenosyl)-L-homocysteine, reference compound] | – | – | – | IC50 [1]: 0.14 µM; Ligand Efficiency (LE) nsp14 [1]: 0.33 kcal/mol; IC50 [2]: 0.28 µM; Ligand Efficiency (LE) nsp16 [2]: 0.32 kcal/mol; IC50 [3]: 1.7 µM; Ligand Efficiency (LE) Human (hMtase) [3]: 0.28 kcal/mol |
| Cc1ccccc1NC(=O)c1nnn2c1NC(C(=O)O)=CC2c1ccc(C(=O)O)cc1 (stereo not drawn) [ZINC000072333096] | 25 ±10% | 33 ±12% | 17 ±4% | – |
| CC(C)(C)c1csc(SCC(=O)Nc2cccc3nsnc23)n1 [Compound 009-639-090] | 16 ±1% | 43 ±7% | 61 ±9% | – |
| CCN(CCSc1ccccc1)C(=O)c1cc(-c2ccncc2)n[nH]1 [ZINC000097636636] | 5 ±2% | 19 ±7% | -46 ±2% | – |
| COc1cc(NC(=O)C2CCN(Cc3nc(-c4cccc(C)c4)no3)CC2)c(OC)cc1Cl [ZINC000030974583] | 19 ±1% | 45 ±11% | 48 ±8% | – |
| O=C(CSc1nc(CC(=O)Nc2cccc3nsnc23)cs1)Nc1ccc(F)cc1 [Compound 009-741-602] | 25 ±2% | 45 ±5% | 24 ±7% | – |
| Cc1nc2ccc(Cl)cc2cc1C(=O)Nc1ccc(C(N)=O)cc1 [ZINC000019718669] | 49 ±16% | 66 ±9% | 52 ±4% | – |
| O=C(Cn1ccc(=O)c2ccccc21)NCCSc1cnn[nH]1 [ZINC000218615582] | 21 ±3% | 51 ±4% | 55 ±2% | – |
| CC(=O)N1N=C(c2ccc3c(c2)OCO3)CC1c1cn(-c2ccccc2)nc1C (stereo not drawn) [ZINC000012821397] | 27 ±5% | 15 ±5% | -5 ±2% | – |
| CN(Cc1cccc2cnccc12)C(=O)CCC1(CCC(=O)O)CCC(=O)N1 (stereo not drawn) [ZINC000220483024] | -5 ±3% | 31 ±6% | 16 ±4% | – |
| Nc1ncnc2c1ncn2[C@@H]1O[C@H](C(=O)NC2CC2)[C@@H](O)[C@H]1O [ZINC000004475116] | 32 ±6% | 54 ±10% | 56 ±1% | – |
| Cc1ncsc1CCC(=O)N1CCCC(C(=O)c2ccc3c4c(cccc24)CC3)C1 (stereo not drawn) [ZINC000012755219] | 9 ±5% | 40 ±8% | 61 ±4% | – |
| NC1=NC(c2ccccc2)n2c(nc(=O)c3ccccc32)N1 (stereo not drawn) [ZINC000008994271] | 19 ±10% | 39 ±3% | -3 ±6% | – |
| Nc1ncnc2c1ncn2[C@@H]1O[C@H](C(=O)N2CCN(CC(=O)Nc3cccc4c3CNC4=O)CC2)[C@@H](O)[C@H]1O [ZINC000017654909] | 62 ±2% | 65 ±7% | 98 ±2% | IC50 [1, 4]: 75 ± 4 µM; Ligand Efficiency (LE) nsp14 [1]: 0.14 kcal/mol; IC50 [2, 5]: 75 ± 4 µM; Ligand Efficiency (LE) nsp16 [2]: 0.14 kcal/mol; IC50 [3, 6]: 22.8 µM; Ligand Efficiency (LE) Human (hMtase) [3]: 0.16 kcal/mol |
| Cc1cc(=O)[nH]c(NCCNC(=O)c2cc(-c3cccn3C)n[nH]2)n1 [ZINC000091693861] | 9 ±6% | 24 ±4% | 21 ±6% | – |
| NC(=O)CC[C@H](N)C(=O)NS(=O)(=O)OC[C@H]1O[C@@H](n2cnc3c(N)ncnc32)[C@H](O)[C@@H]1O [ZINC000036477981] | 20 ±3% | 50 ±11% | 89 ±8% | – |

Reference: PMC8705538, “Discovery of SARS-CoV-2 Nsp14 and Nsp16 Methyltransferase Inhibitors by High-Throughput Virtual Screening” (Pharmaceuticals, 2021)
